Measurements published in paper PMC11816618, “Pharmacokinetic profile and in vivo anticancer efficacy of anagrelide administered subcutaneously in rodents” (Drug Delivery, 2025).
Like-named read-outs stand apart in the source and are kept apart here.

Legend:
[1] = Petrides et al., 2009, 2018, cited from earlier work
UZLX-GIST2B = test system: UZLX-GIST2B; parameters: method as in Pulkka et al., 2019; conditions: 5 mg/kg PO BID, in 11 days; ref Pulkka et al., 2019; cited from earlier work
[2] = PK comparison between three administration routes (IV, PO, SC), plasma LC-MS/MS; assay type: in vivo, Sprague-Dawley rats; conditions: for Vd/F: read-out: Vz/F
Procedure: The rats were purchased from SPF Biotechnology Co. Ltd. (Beijing, China). Animals were acclimated to the test facility for at least three days, during which their general health was checked by veterinary staff or other authorized personnel. Animals were kept in polycarbonate cages containing absorbent corncob bedding, with a maintained temperature range of +20-25 °C and a 12-h light/dark cycle. Animals had access to food and drinking water ad libitum during acclimation and the experiment. At the end of the study, the rats were euthanized by exposure to an increasing concentration of CO2. […] The SC formulation was prepared by dissolving micronized ANA (5 μm particle size) in an oily triglyceride ester of saturated caprylic and capric fatty acids and glycerol (Miglyol® 810 N, IOI Oleo GmbH, Hamburg, Germany). […] To evaluate plasma concentration-time profiles, blood samples were collected from the jugular vein in EDTA tubes and stored at -70 °C until further analysis. […] In the second PK analysis in rats with a longer follow-up time, blood samples were collected at 0, 30 min, 1 […], and 56 d after dosage. SD rat plasma was analyzed for ANA, 3-OH-ANA, and RL603 concentrations by Pharmaron (Beijing, China). ANA, 3-hydroxy-anagrelide (CAS No. 733043-41-9, Cat. No. sc-206647, Santa Cruz Biotechnology, Inc., Dallas, TX), and RL603 (CAS No. 327602-34-6, Cat. No. sc-391661, Santa Cruz Biotechnology, Inc., Dallas, TX) were used as reference items in calibration standards and quality control (QC) samples. The HPLC and the MS/MS (LCMS-8060) instruments were both from SHIMADZU (Kyoto, Japan), and the column used was a Raptor Biphenyl column (2.7 μm, 50 × 2.1 mm, Restek, Bellefonte, PA). The desired serial concentrations of working solutions were achieved by diluting analyte stock solution with 50% acetonitrile in water. […] These QC samples were prepared on the day of analysis in the same way as calibration standards. Carbamazepine (CAS No. 298-46-4, Sigma-Aldrich, St. Louis, MO) was used as an internal standard for all analytes. Altogether, 55 μL of standards, 55 μL of QC samples, and 55 μL of test samples (comprising 50 μL of plasma and 5 μL of blank solution) were added to 200 μL of acetonitrile containing an internal standard mixture to precipitate protein. The samples were then vortexed for 30 seconds. After centrifugation at 4000 × g (+4 °C) for 5 min, the supernatant was diluted threefold with water, and 2 μL of the diluted supernatant was injected into the LC/MS/MS system for quantitative analysis. The transitions were 256.00-198.90 m/z for anagrelide hydrochloride, 272.00-198.95 m/z for 3-hydroxy anagrelide, 216.00-198.95 m/z for RL603, and 237.20-194.10 m/z for carbamazepine. […] Plasma drug concentration-time profiles were drawn by the average plasma concentrations at specific time points using Microsoft Excel (Redmond, WA). […] Certara, Princeton, NJ) software. Averages of each variable were used when PK values were compared.

[3] = SC 1.0 mg/kg vs IV 0.5 mg/kg, SD rats
[4] = Sprague-Dawley, rat, plasma, single ANA dose 0.5 mg/kg IV, male SD rats, n = 3, mean ± SD
[5] = Sprague-Dawley, rat, plasma, single ANA dose 1.0 mg/kg SC in miglyol, male SD rats, n = 5, mean ± SD
[6] = Sprague-Dawley, rat, plasma, single ANA dose 2.5 mg/kg PO, male SD rats, n = 3, mean ± SD
[7] = Sprague-Dawley, rat, analyte in plasma after single ANA dose 0.5 mg/kg IV, male SD rats, n = 3, mean ± SD
[8] = Sprague-Dawley, rat, analyte in plasma after single ANA dose 1.0 mg/kg SC in miglyol, male SD rats, n = 5, mean ± SD
[9] = Sprague-Dawley, rat, analyte in plasma after single ANA dose 2.5 mg/kg PO, male SD rats, n = 3, mean ± SD

## O=C1CN2Cc3c(ccc(Cl)c3Cl)N=C2N1 [Anagrelide, imidazo‐[2,1‐b] quinazolin‐2[3H]‐one, 6,7‐dichloro‐1,5‐dihydro, monohydro‐chloride]
[1]; after PO drug administration, ref Gaver et al., 1981
  time of peak plasma concentration: approximately one hour
[1]; taken orally, ref Spencer & Brogden, 1994
  bioavailability: approximately 70%
UZLX-GIST2B
  tumor response in the same PDX model: significant tumor regression
[2]; [3]
  AUClast lower with SC than with IV: 36%
  increase of T1/2 with SC administration compared to IV: 25 fold
[2]; [4]
  MRT inf: 0.51 ± 0.08 h
  clearance: 31.9 ± 2.52 mL/min/kg
[2]; Sprague-Dawley, rat, plasma, single ANA dose 0.5 mg/kg IV, male SD rats, n = 3, mean ± SD, read-out: Vss
  Vd: 0.97 ± 0.1 L/kg
[2]; [5]
  CL/F: 101 ± 37.4 mL/min/kg
  MRT inf: 48.1 ± 22.7 h
  bioavailability: 33.5 ± 9.79%
  Vd/F: 218 ± 149 L/kg
[2]; [6]
  CL/F: 718 ± 125 mL/min/kg
  MRT inf: 6.38 ± 1.33 h
  bioavailability: 4.19 ± 0.7%
  Vd/F: 634 ± 338 L/kg
[2]; [7]
  AUC(0-inf): 262 ± 19.9 ng·h/mL
  AUC(0-t): 261 ± 19.8 ng·h/mL
  Cmax: 497 ± 17.5 ng/mL
  half-life: 1.09 ± 0.22 h
[2]; [8]
  AUC(0-inf): 187 ± 62 ng·h/mL
  AUC(0-t): 167 ± 57.1 ng·h/mL
  Cmax: 12.4 ± 3.14 ng/mL
  half-life: 27.3 ± 24.4 h
[2]; [9]
  AUC(0-inf): 59.3 ± 9.49 ng·h/mL
  AUC(0-t): 51.4 ± 7.09 ng·h/mL
  Cmax: 18 ± 2.59 ng/mL
  half-life: 10.1 ± 4.93 h
[2]; after IV 0.5 mg/kg, SD rats
  time to compound elimination from plasma: ≤ 6 h
[2]; after PO 2.5 mg/kg, SD rats
  decrease of plasma concentrations by the 8-h time point: approximately 90%
[2]; after SC 1.0 mg/kg, SD rats, except a few irregular observations near the quantification limit
  time point after which plasma concentrations were no longer detectable: 72 h
[2]; analyte in plasma after single ANA dose 1.0 mg/kg SC in miglyol, male SD rats, n = 5, mean ± SD, 1 mg/kg
  Tmax: 0.80 ± 0.27 h
[2]; male, Sprague-Dawley, rat, plasma, iv, 0.5 mg/kg, analyte in plasma after single ANA dose 0.5 mg/kg IV, male SD rats, n = 3, mean ± SD, read-out: Tmax
  Tmax: 0.083 h
[2]; male, Sprague-Dawley, rat, plasma, po, 2.5 mg/kg, analyte in plasma after single ANA dose 2.5 mg/kg PO, male SD rats, n = 3, mean ± SD, read-out: Tmax
  Tmax: 1 h
[2]; male, Sprague-Dawley, rat, plasma, sc, 1 mg/kg, analyte in plasma after single ANA dose 1.0 mg/kg SC in miglyol, male SD rats, n = 5, mean ± SD, read-out: Tmax
  Tmax: 1 h
